Reference: BindingDB's records for doi:10.1021/jm0200660 (Berlex Biosciences, 2002)

Molecular target: Cationic trypsin (Bos taurus)
Assay: Inhibitory constant against bovine trypsin for general specificity against serine proteases

Cc1c(F)c(Oc2cccc(C(=N)N)c2)nc(Oc2cccc(C(N)=O)c2)c1F [3-[6-(3-Carbamimidoyl-phenoxy)-3,5-difluoro-4-methyl-pyridin-2-yloxy]-benzamide]
Ki: > 5 µM
